# Test results published in patent publication US20260102359A1, “COMBINATION TREATMENT OF DERMAL AND TRANSDERMAL FIBROTIC DISEASES, DISORDERS AND ASSOCIATED PAIN AND INFLAMMATION” (ERESINA, LLC, priority 2022, published 2026).
# Counter-ions that a name gives are not always drawn.
# Tested on: hDMFa myofibroblast cells
row,SMILES,Compound Myofibroblast Cytotoxicity Activity
1,"C[C@]12CC[C@@H]3c4ccc(O)cc4CC[C@H]3[C@@H]1CC[C@@H]2OC(=O)CCC1CCCC1 [Cmpd 430, Estradiol Cypionate]",+++
2,"C/C=C/C=C/C(=O)O [Cmpd 881, Sorbic acid]",++
3,"CCCCCCCCCCCCCCCC(=O)OC/C=C(C)/C=C/C=C(C)/C=C/C1=C(C)CCCC1(C)C [Cmpd 830, Retinyl (Vitamin A) Palmitate]",++
4,"COC(=O)c1ccc2c(c1)NC(=O)/C2=C(\Nc1ccc(N(C)C(=O)CN2CCN(C)CC2)cc1)c1ccccc1 [Cmpd 716, Nintedanib (BIBF 1120)]",++++
5,"CO/N=C(\C(=O)N[C@@H]1C(=O)N2C(C(=O)O)=C(COC(C)=O)CS[C@H]12)c1csc(N)n1 [Cmpd 233, Cefotaxime (sodium salt)]",+++
6,"O=c1ccc2ccc(OCCCCN3CCN(c4cccc5sccc45)CC3)cc2[nH]1 [Cmpd 191, Brexpiprazole]",+++
7,"CC1=C(C(=O)O)N2C(=O)[C@@H](NC(=O)[C@H](N)c3ccc(O)cc3)[C@H]2SC1 [Cmpd 227, Cefadroxil (hydrate)]",++
8,"CC(O)C(=O)O.CC(O)C(=O)O.CN1CCN(c2ccc3nc(-c4c(N)c5c(F)cccc5[nH]c4=O)[nH]c3c2)CC1 [Cmpd 383, Dovitinib Dilactic acid]",+++
9,"CN(Cc1cnc2nc(N)nc(N)c2n1)c1ccc(C(=O)N[C@@H](CCC(=O)[O-])C(=O)[O-])cc1.[Na+].[Na+] [Cmpd 658, Methotrexate disodium]",++
10,"COc1ccc2cc3[n+](cc2c1OC)CCc1cc2c(cc1-3)OCO2 [Cmpd 173, Berberine Sulfate]",++
11,"CC(=O)c1ccccc1 [Cmpd 82, Acetophenone]",++
12,"COc1ccc(C(CN(C)C)C2(O)CCCCC2)cc1 (stereo not shown) [Cmpd 998, Venlafaxine]",++
13,"C=C(C)[C@H]1CC=C(C)C(=O)C1 [Cmpd 28, (S)-(+)-Carvone]",++
14,"C[C@H](C(=O)O)c1ccc(-c2ccccc2)c(F)c1 [Cmpd 30, (S)-Flurbiprofen]",++++
15,"COc1ccc2cc1Oc1ccc(cc1)C[C@H]1c3c(cc4c(c3Oc3cc5c(cc3OC)CCN(C)[C@@H]5C2)OCO4)CCN1C [Cmpd 241, Cepharanthine]",++
16,"CCCCCCCC/C=C\CCCCCCCC(=O)OCC(C[N+](C)(C)C)OC(=O)CCCCCCC/C=C\CCCCCCCC.[Cl-] (stereo not shown) [Cmpd 33, 1,2-Dioleoyl-3-trimethylammoniumpropane (chloride)]",+++
17,"CC1(C)C[C@@H]1C(=O)N/C(=C\CCCCSC[C@H](N)C(=O)O)C(=O)O [Cmpd 260, Cilastatin]",++++
18,"O=S(=O)([O-])CCCS(=O)(=O)[O-].[Na+].[Na+] [Cmpd 423, Eprodisate disodium]",++
19,"CC(C)(C)NC(=O)[C@@H]1C[C@@H]2CCCC[C@@H]2CN1C[C@@H](O)[C@H](Cc1ccccc1)NC(=O)[C@H](CC(N)=O)NC(=O)c1ccc2ccccc2n1 [Cmpd 852, Saquinavir mesylate]",++++
20,"CCCCC(=O)O[C@]1(C(=O)CO)[C@@H](C)C[C@H]2[C@@H]3CCC4=CC(=O)C=C[C@]4(C)[C@@]3(F)[C@@H](O)C[C@@]21C [Cmpd 176, Betamethasone Valerate]",++

row,SMILES,Compound Myofibroblast Cytotoxicity Activity
1,"CCOC(=O)C1=C(C)NC(C)=C(C(=O)OC)C1c1cccc([N+](=O)[O-])c1 (stereo not shown) [Cmpd 719, Nitrendipine]",+++
2,"CN(C)CCOc1ccc(/C(=C(/CCCl)c2ccccc2)c2ccccc2)cc1 [Cmpd 959, Toremifene Citrate]",+++
3,"NC(=O)c1cn(Cc2c(F)cccc2F)nn1 [Cmpd 843, Rufinamide]",+++
4,"CN(C/C=C/c1ccccc1)Cc1cccc2ccccc12 [Cmpd 696, Naftifine HCl]",++
5,"COc1cc2c(Oc3ccc4[nH]c(C)cc4c3F)ncnc2cc1OCCCN1CCCC1 [Cmpd 226, Cediranib (AZD217)]",++++
6,"CC1(C)NC(=O)N(c2ccc([N+](=O)[O-])c(C(F)(F)F)c2)C1=O [Cmpd 714, Nilutamide]",++++
7,"Cc1ccc(O)cc1 [Cmpd 762, p-Cresol]",++
8,"NC(=O)CC[C@@H](N)C(=O)O [Cmpd 346, D-Glutamine]",++
9,"CC=Cc1ccc(O)c(OC)c1 [Cmpd 536, Isoeugenol]",++
10,"O=S(=O)([O-])c1cc(O)ccc1O.O=S(=O)([O-])c1cc(O)ccc1O.[Ca+2] [Cmpd 205, Calcium dobesilate]",++
11,"N=C(N)c1ccc(OCCCCCOc2ccc(C(=N)N)cc2)cc1.O=S(=O)(O)CCO.O=S(=O)(O)CCO [Cmpd 768, Pentamidine isethionate]",+++
12,"O=C(O)[C@@H]1CCCN1 [Cmpd 612, L-Proline]",++++
13,"Cc1cccc(O)c1 [Cmpd 636, m-Cresol]",++
14,"O=C1CN(/N=C/c2ccc(-c3ccc([N+](=O)[O-])cc3)o2)C(O)=N1 [Cmpd 320, Dantrolene, sodium salt]",++++
15,"C[C@H]1[C@H](C)CC[C@]2(C(=O)O)CC[C@]3(C)C(=CC[C@@H]4[C@@]5(C)C[C@@H](O)[C@H](O)[C@@](C)(CO)[C@@H]5[C@H](O)C[C@]43C)[C@H]12 [Cmpd 625, Madecassic acid]",+++++
16,"CC(C)(C)C#Cc1cc(N(C(=O)[C@H]2CC[C@H](C)CC2)[C@H]2CC[C@H](O)CC2)c(C(=O)O)s1 [Cmpd 1014, VX-222 (VCH-222,Lomibuvir)]",++
17,"COc1cc(Nc2ncc(F)c(Nc3ccc4c(n3)N(COP(=O)([O-])[O-])C(=O)C(C)(C)O4)n2)cc(OC)c1OC.[Na+].[Na+] [Cmpd 816, R788 disodium]",++
18,"CCOC(=O)/C=C(C)/C=C/C=C(C)/C=C/c1c(C)cc(OC)c(C)c1C [Cmpd 442, Etretinate]",+++
19,"CC(C)NCC(O)COc1ccc(CC(N)=O)cc1 (racemic) [Cmpd 14, (±)-Atenolol]",+++
20,"CC(C)(S)[C@@H](N)C(=O)O [Cmpd 766, Penicillamine]",++

row,SMILES,Compound Myofibroblast Cytotoxicity Activity
1,"CC(=O)Nc1c(I)c(NC(C)=O)c(I)c(C(=O)O)c1I [Cmpd 348, Diatrizoic acid]",++
2,"O=C(O)c1cc(-c2ccc(F)cc2F)ccc1O [Cmpd 359, Diflunisal]",++
3,"O=C([O-])[O-].[Li+].[Li+] [Cmpd 595, Lithium carbonate]",++++
4,"COc1cc(NC(C)CCCN)c2ncccc2c1.O=P(O)(O)O.O=P(O)(O)O (stereo not shown) [Cmpd 796, Primaquine Diphosphate]",+++
5,"COCCCC/C(=N\OCCN)c1ccc(C(F)(F)F)cc1 [Cmpd 466, Fluvoxamine maleate]",++
6,"Cl.N=C(N)c1ccccc1 [Cmpd 163, Benzamidine HCl]",+++
7,"C[N+](C)(C)CCOP(=O)(O)OP(=O)([O-])OC[C@H]1O[C@@H](n2ccc(N)nc2=O)[C@H](O)[C@@H]1O [Cmpd 271, Citicoline (sodium salt)]",+++
8,"Clc1ccc(COC(Cn2ccnc2)c2ccc(Cl)cc2Cl)cc1 (stereo not shown) [Cmpd 403, Econazole nitrate]",+++
9,"CC[C@H]1CN2CC[C@H]1C[C@@H]2[C@@H](O)c1ccnc2ccc(OC)cc12 [Cmpd 508, Hydroquinidine]",++
10,"CCCCCCCCCCCC(=O)O [Cmpd 564, Lauric Acid]",++
11,"COc1ccc([C@@H]2CC(=O)c3c(O)cc(O[C@@H]4O[C@H](CO)[C@@H](O)[C@H](O)[C@H]4O[C@@H]4O[C@@H](C)[C@H](O)[C@@H](O)[C@H]4O)cc3O2)cc1O [Cmpd 702, Neohesperidin]",++
12,"Oc1c(I)cc(Cl)c2cccnc12 [Cmpd 281, Clioquinol]",++
13,"CCC(=O)c1c(O)cc(O)cc1O [Cmpd 458, Flopropione]",++
14,"Cc1cc(N)c2ccccc2[n+]1CCCCCCCCCC[n+]1c(C)cc(N)c2ccccc21 [Cmpd 340, Dequalinium Chloride]",++
15,"Nc1ncn([C@@H]2O[C@H](CO)[C@@H](O)[C@H]2O)c(=O)n1 [Cmpd 64, 5-Azacytidine]",+++
16,"O=C(O)CCC(=O)O [Cmpd 196, Butane diacid]",++
17,"CCCCCCCCOc1ccccc1C(=O)Nc1ccc(C(=O)OCC[N+](C)(CC)CC)cc1 [Cmpd 741, Otilonium Bromide]",+++++
18,"O=C(c1ccc(F)c(F)c1Nc1ccc(I)cc1F)N1CC(O)([C@@H]2CCCCN2)C1 [Cmpd 290, Cobimetinib]",++++
